Here are results for 12 molecules from PMC6358775, “Elucidation of Vasodilation Response and Structure Activity Relationships of N^2,N^4-Disubstituted Quinazoline 2,4-Diamines in a Rat Pulmonary Artery Model” (Molecules, 2019).

Converted amounts (≈) assume the structure as drawn. Where a name gives a salt, the structure may show the parent alone. Read-outs that look alike come from different tables or passages of the source. A value given as a limit tells only on which side of the number the result lay.

The test system of one series is α1 adrenergic receptor. Conditions: α1 adrenergic receptor antagonist; ChEMBL substructure search; cited from earlier work.
Another series deals with Glucose Transporter. More on the design: method as in earlier work. Conditions: ChEMBL substructure search; cited from earlier work.
The test system of a further series is DHFR. As to conditions: ChEMBL substructure search; cited from earlier work.
For series [1], the system named is PE-induced contraction of endothelium-denuded pulmonary arterial rings. As to the kind of experiment: Inhibition of phenylephrine (PE)-induced contraction in endothelium-denuded arterial rings. On the set-up: species or system rat. Conditions: 10 µM compound, 15 min pre-incubation, E− rings; for inhibition at 10 µM: Rattus norvegicus, PE 0.0001–100 µM, n = 3–5, read-out: % PE-Contraction Inhibition (SEM); for maximal contraction induced by PE attenuated to: remaining contraction. How it is done: These experiments were undertaken to assess the pharmacological activity of quinazoline analogues against the structurally related α1 receptor blocker (prazosin). In contrast to previous vasorelaxant experiments, this protocol was developed to determine the inhibitory effect of pre-incubated (15 min) inhibitors (10 µM) on the concentration-dependent vasoconstriction induced by cumulative addition of PE (0.0001–100 µM) in endothelium-denuded pulmonary arterial rings. Figure 5 illustrates the real time contractile response shown by the pulmonary arterial ring upon cumulative addition of PE, which evoked a concentration-dependent vasoconstriction, increasing the vessel’s tension.
After anesthesia with thiopental sodium (100 mg/kg, i.p.) (Anesthal®, Jagsonpsal Pharmaceutical Ltd., Haryana, India), rats were euthanized by exsanguination. Lungs were carefully excised, cleaned by the removal of connective tissue, and placed in cold physiological Krebs’ solution composed of (mM): NaCl 122; KCl 5; N-[2-hydroxyethyl] piperazine-N′-[2-ethane-sulfonic acid] (HEPES) 10; KH2PO4 0.5; NaH2PO4 0.5; MgCl2 1; CaCl2 1.8; and glucose 11 adjusted to pH 7.3 using 1 M NaOH. The pulmonary artery was isolated from the lungs and cut into rings approximately 2 mm in length before mounting in the organ bath chambers. Endothelial cells were mechanically removed in some experiments by gentle rubbing of the inner surface with forceps. Pulmonary arterial rings were mounted on intraluminal wires via stainless steel hooks maintaining the resting tension at 1 g and rings were equilibrated for 30 min before obtaining a stable contraction with 10^−5 M phenylephrine (PE). The rings were immersed in 10 mL baths containing physiological Krebs’ solution at 37 °C, which was continuously bubbled with air. Force transducers were connected with intraluminal wires to measure isometric tension via a Mac Lab A/D converter (Chart V5, A.D. Instruments, Castle Hill, NSW, Australia). The functional integrity of the endothelium in the vessels was confirmed by vasorelaxation of ≥70% with sequential addition of 10^−5 M acetylcholine (ACh) to pre-contracted vessels with 10^−5 M PE. Relaxations ≤30% to 10^−5 M ACh in vessels rubbed mechanically were considered successfully endothelium denuded.
The protocol included the assessment of the inhibitory vasoconstriction effect of quinazoline test compounds on endothelium-denuded arterial rings. Briefly, the arterial rings were treated with the α1-receptor blocker (prazosin) or test compound at a concentration of 10 µM for 15 min before construction of the second concentration response curve with cumulative addition of PE (0.0001–100 µM). The same conditions were used to test the effects of the solvent (DMSO 0.2%). The results were obtained in percentages by comparison of the maximum contraction without treatment with the contraction in the presence of the test compound [24, 36, 37].

For another series, the system named is A549 cells. Briefly: MTT cytotoxicity assay in A549 cells. It counts as cell-based. Conditions: Homo sapiens. How it is done:
A 3-[4,5-dimehyl-2-thiazolyl]-2,5-diphenyl-2H-tetrazoliumbromide (MTT) assay was utilized to assess the concentration-response curves for quinazoline analogues as previously reported. A549 cells (ATCC CCL-185, human alveolar basal epithelial cell line) were used to account for the general cytotoxicity of compounds. Cells were cultured in DMEM medium containing fetal bovine serum (FBS; 10%), penicillin (10 U/mL), and streptomycin (100 U/mL). The temperature was maintained at 37 °C with 5% CO2. Cells were seeded for 16–18 h in DMEM and incubated for 72 h with the test compounds. After incubation, MTT (5 mg/mL in normal saline) was added with DMEM and incubated for 3 h. Careful decantation of the medium and addition of DMSO (50 µL) was done. Absorbance values were recorded at 570 nm after 5 min mechanical shaking of the microplate (Sunrise microplate reader, Tecan).
The activity was presented as the inhibitory concentration required to produce a 50% response (IC50). Prism 6.0 GraphPad Software Inc., (San Diego, CA, USA) was utilized for data fitting. 0.5% DMSO was used as the negative control.
(In general: Formazan colour is commonly taken as a measure of viable cells.)

In series [2] the test system is endothelium-denuded rat pulmonary arterial rings. Briefly: Vasorelaxation of PE pre-contracted endothelium-denuded (E−) pulmonary arterial rings, organ bath. Conditions: for IC50: Table S3, endothelium-denuded, read-out: E- Vaso. pIC50 (converted); for EC50: endothelium-denuded (E−) rings pre-contracted with 10^-5 M PE, cumulative 0.0001–30 µM, mean (SEM), n = 6, read-out: Vaso E− EC50 µM (SEM); for Emax: maximal relaxation, endothelium-denuded rings, up to 30 µM, mean ± SEM.

For series [3], the system named is endothelium-intact rat pulmonary arterial rings. Briefly: Vasorelaxation of PE pre-contracted endothelium-intact (E+) pulmonary arterial rings, organ bath. As to conditions: for Emax / IC50 / EC50: Rattus norvegicus; for IC50: Table S3, endothelium-intact, read-out: E+ Vaso. pIC50 (converted); for EC50: endothelium-intact (E+) rings pre-contracted with 10^-5 M PE, cumulative 0.0001–30 µM, mean (SEM), n = 6, read-out: Vaso E+ EC50 µM (SEM).

The nature of another series: physchem. Conditions: for solubility thermodynamic at 6 h: pH 7.4, aqueous buffer, thermodynamic from solid. How it is done:
The solubility of the compounds under investigation here were assessed in phosphate buffer at pH 7.4 using the equilibrium shake-flask method.
An equilibrium shake-flask technique was used to determine the solubility of samples in PBS at pH 7.4. Approximately 1 mg of sample was placed in a 10 mL glass screw top vial and dissolved in 1 mL of 0.02 M PBS at pH 7.4. The solution was sonicated for 1 h, followed by shaking for 6 h (IKA HS 260). The saturated solution was then filtered using a nylon syringe filter. A standard solution of each sample was prepared by dissolving a weighed amount of the sample in 1 mL of DMSO. The concentration of sample dissolved in the PBS solution was determined by comparing the peak area of the PBS and DMSO standard using an Agilent 1100 series HPLC with a Sunshell C8 column (Chromanik Technologies Inc., Osaka, Japan). A 100 µL injection of the aqueous sample and 5 µL of DMSO solution (pre-diluted 100 fold using DMSO) were used.

A further series addresses PDE-5 (Homo sapiens, UniProt O76074). Conditions: cited from earlier work.
In series [4] the test system is Aldehyde dehydrogenase 1A1. More on the design: method as in earlier work. Conditions: ChEMBL substructure search; cited from earlier work.
Setting [5] is: A549, MTT, 72 h incubation, read-out: A549 IC50, µM (S.D.).
Where [6] appears, read: Table S3, A549, read-out: Cytox. pIC50 (converted).
[7] abbreviates: maximal relaxation, endothelium-intact rings, up to 30 µM, mean ± SEM.

Take `COc1cc2nc(N(C)CCCNC(=O)C3CCCO3)nc(N)c2cc1OC` (stereo not shown) [Alfuzosin]: the “Activity” value in the series on α1 adrenergic receptor is listed as 3 nM.
Take `COc1cc2nc(N(C)C3CCN(Cc4ccccc4)CC3)nc(N)c2cc1OC` [CHEMBL527902]: the “Activity” value with Glucose Transporter is 4.087 µM.
Consider `COc1cccc2c(NCc3ccccc3)nc(NCCCN3CCCCC3C)nc12` (stereo not shown) [CHEMBL546792], for which, in the series on Glucose Transporter, the “Activity” value was 4.102 µM.
As for `Cc1ccccc1Nc1nc(Nc2ccccc2)c2ccccc2n1.Cl` [CHEMBL582356], in the series on Glucose Transporter, the “Activity” value is 4.496 µM.
For the molecule `CCOc1ccc2ccccc2c1-c1cc2nc(N)nc(N)c2cc1C` [CHEMBL1818128], in the series with DHFR, the “Activity” value is recorded as 4.5 nM.
What is called inhibition is the drop in the measured response relative to a control, in per cent. As usually defined, the EC50 is the concentration needed to bring the measured effect to its halfway point. As a reminder, the Emax is the maximal effect, on the per cent scale that the assay sets. The term solubility (thermodynamic) denotes the concentration in solution at equilibrium with solid. Regarding `O=C(Nc1ccccc1)Nc1ccc(Nc2nc(NCc3cccs3)c3ccccc3n2)cc1` [Compound 7], in [1], the inhibition at 10 µM turned out to be 43.6% and the “maximal contraction induced by PE attenuated to” value (shortened to “maximal contraction induced”) worked out at 57.57 ± 5.99%. Moreover, in the series on A549 cells (setting [5]), the IC50 was 2.91 µM. The IC50 in the series on A549 cells (setting [6]) was 2.88 µM. In [2], the IC50 was more than 30 µM, the EC50 was more than 30 µM and the Emax is 22.3 ± 4.4%. The Emax in [3] (setting [7]) was 76 ± 5.73%. Further, in series [3], the IC50 was 4.07 µM and the EC50 was 4.1 µM. In the series “physchem” (6 h, pH 7.4), the “Log Sol” value is on record as -0.66 and the “Sol. pH7.4 (µM)” value is reported as 0.22 µM. Also, the solubility (thermodynamic) at 6 h in the series “physchem” came to 100 µg/mL (≈ 214 µM).
Turning to `c1csc(CNc2nc(Nc3ccc(N4CCOCC4)cc3)nc3ccccc23)c1` [Compound 8], in [1], the inhibition at 10 µM was 42.4% and the “maximal contraction induced” value turned out to be 56.38 ± 7.10%. For the same molecule, in the series with A549 cells (setting [5]), the IC50 came to 11.4 µM. For the same molecule, the IC50 in the series with A549 cells (setting [6]) was 11.5 µM. In series [2], the IC50 is 8.51 µM, the EC50 worked out at 8.5 µM and the Emax was 100%. Further, in [3] (setting [7]), the Emax stood at 98.8 ± 0.79% and the “E+ Emax (%)” value was 98.88 ± 0.79%. In addition, in series [3], the IC50 is 0.575 µM and the EC50 was determined as 0.58 µM. For the same molecule, in the series “physchem” (6 h, pH 7.4), the “Log Sol” value is on record as -0.32 and the “Sol. pH7.4 (µM)” value came to 0.48 µM. Moreover, the solubility (thermodynamic) at 6 h in the series “physchem” came to 200 µg/mL (≈ 479 µM).
In the case of `NS(=O)(=O)c1cccc(Nc2nc(NCc3ccco3)c3ccccc3n2)c1` [Compound 13], in series [1], the inhibition at 10 µM turned out to be 45.9% and the “maximal contraction induced” value is given as 54.07 ± 11.69%. For the same molecule, the IC50 in the series with A549 cells (setting [5]) amounted to 26.9 µM. The IC50 in the series on A549 cells (setting [6]) is 26.9 µM. Further, in [2], the IC50 is 3.02 µM, the EC50 is 3.02 µM and the Emax was found to be 95.6 ± 2.75%. The molecule further returned an Emax in series [3] (setting [7]) of 95.5 ± 2.17%. In [3], the IC50 is 6.61 µM and the EC50 was 6.61 µM. In the series “physchem” (6 h, pH 7.4), the “Log Sol” value is -0.42 and the “Sol. pH7.4 (µM)” value came out at 0.38 µM. This molecule also yielded a thermodynamic solubility at 6 h in the series “physchem” of 150 µg/mL (≈ 379 µM).
For `Clc1cnc(Nc2ccccc2)nc1NCc1ccccc1` [Compound 14], the IC50 was more than 100 µM in the series on A549 cells (setting [5]), more than 100 µM with A549 cells (setting [6]), 10.7 µM in [2] and 4.47 µM in [3]. Also, on PDE-5, the “PDE-5 activity (in words)” value is “borderline PDE-5 inactive”. Further, the values for the EC50 in [2] and in series [3] were 10.7 µM and 4.49 µM, respectively. The Emax in series [2] amounted to 54.7 ± 6.12%; in series [3] (setting [7]), 67.8 ± 5.34%. For the same molecule, the “Log Sol” value in “physchem” (6 h, pH 7.4) was determined as 0.51. Further, the “Sol. pH7.4 (µM)” value in the series “physchem” (6 h, pH 7.4) turned out to be 3.27 µM. The thermodynamic solubility at 6 h in the series “physchem” came out at 1020 µg/mL (≈ 3280 µM).
Take `COc1cc2nc(N3CCN(C(=O)c4ccco4)CC3)nc(N)c2cc1OC` [PRAZOSIN HYDROCHLORIDE]: the “Activity” value in series [4] was 25 µM.
For the molecule `COc1cc2nc(N3CCN(C(=O)c4ccco4)CC3)nc(N)c2cc1OC` [Prazosin (PZN), Prazosin HCl, reference compound], the inhibition at 10 µM in series [1] is 98%. Besides, in the series on α1 adrenergic receptor, the “Activity” value was 1 nM. Further, in the series “physchem” (6 h, pH 7.4), the “Sol. pH7.4 mg/mL” value is 0.55 mg/mL and the “Sol. pH7.4 (µM)” value is reported as 1.42 µM. In addition, the thermodynamic solubility at 6 h in “physchem” came out at 550 µg/mL.
Regarding `COc1cc(NCc2ccc3nc(N)nc(N)c3c2C)cc(OC)c1OC` [Trimetrexate], the “Activity” value in the series with DHFR is given as 3 nM.
